Twelve compounds from ChEMBL document CHEMBL1201862, “PubChem BioAssay data set” (2004) can be followed below.

Structures are written as SMILES.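 Test compounds were applied to cells in 96-well plates for 48 hours at 5 doses. Here, GI50 denotes the concentration required for 50% inhibition of growth.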 Calls of active or inactive are those of the source. Rule as the data show it: active = GI50 up to about 1.1 µM and inactive = higher.

Common to all, as to assay: NCI anticancer screen, dose series, 48 h
The subject of assay [1] is A498.
The subject of assay [2] is CAKI-1.
Assay [3] deals with HL-60.
Assay [4] concerns HT-29.
The subject of assay [5] is IGROV-1.
Assay [6] concerns KM12.
Assay [7] relates to M14.
Assay [8] deals with NCI-H460.
Assay [9] has as its system NCI-H522.
Assay [10] has as its system OVCAR-3.
Assay [11] has as its system OVCAR-5.
For assay [12], the system named is SK-MEL-2.
The subject of assay [13] is SN12C.
For assay [14], the system named is SR.
Assay [15] deals with SW-620.
The subject of assay [16] is TK-10.
The subject of assay [17] is RXF 393.

For the compound `COc1cc2ccnc(-c3n[nH]c4cc(OC)c(OC)cc34)c2cc1OC`, the GI50 in assay [1], in [2], in assay [3], in assay [4], in assay [5] and in [6] was > 100 µM (inactive) throughout. Further, the GI50 in [7] was > 100 µM (inactive); in assay [8], > 100 µM (inactive); in [9] it was 22 µM (inactive); in [10], > 100 µM (inactive); in [11], > 100 µM (inactive); in assay [12], > 100 µM (inactive). Also, the GI50 in assay [13], in [14], in [15] and in assay [16] was > 100 µM (inactive) each time.

On to `CC(=O)/C(=N\O)C(=O)NCCc1ccccc1`, for which the GI50 in assay [1] was > 100 µM (inactive); in assay [2], > 100 µM (inactive); in assay [3], 73.8 µM (inactive); in [4] it was 83.2 µM (inactive); in [5] it was > 100 µM (inactive); in assay [6], 58.3 µM (inactive). The GI50 in assay [7] is > 100 µM (inactive); in [8], 41.6 µM (inactive); in assay [9] it was > 100 µM (inactive); in assay [10] it was > 100 µM (inactive); in assay [11], > 100 µM (inactive); in [17] it was 64.7 µM (inactive). Besides, the GI50 in [12] was > 100 µM (inactive); in [13], > 100 µM (inactive); in assay [14], > 100 µM (inactive); in assay [15], 38.8 µM (inactive); in assay [16] it was 45.1 µM (inactive).

For the compound `O=[N+]([O-])c1ccc(C(O)/C(=N/O)c2nc3ccc(Cl)cc3nc2O)cc1` (stereo not drawn), the GI50 in assay [1], in assay [2], in assay [3], in assay [4], in [5] and in [6] was > 100 µM (inactive) in each case. The GI50 in [7], in assay [8], in assay [17], in assay [12], in assay [13] and in [14] was > 100 µM (inactive) each time. Also, the GI50 in assay [15] and in [16] was > 100 µM (inactive) in each case.

On to `CCOC(=O)CCCO`, for which the GI50 in [1], in assay [3], in assay [4], in assay [5], in [6] and in [7] was > 100 µM (inactive) each time. In addition, the GI50 in [8], in assay [9], in assay [10], in [11], in [17] and in assay [12] was > 100 µM (inactive) in each case. Moreover, the GI50 in [13], in assay [14], in assay [15] and in [16] was > 100 µM (inactive) each time.

On to `O=C(NO)C(=O)Nc1cc(Cl)ccc1Cl`, for which the GI50 in assay [1] was > 100 µM (inactive); in assay [2], 23.2 µM (inactive); in [3] it was > 100 µM (inactive); in assay [4] it was > 100 µM (inactive); in [5] it was 20.1 µM (inactive); in assay [6], > 100 µM (inactive). In addition, the GI50 is > 100 µM (inactive) in assay [7]; > 100 µM (inactive) in assay [8]; 23.9 µM (inactive) in assay [9]; 90.6 µM (inactive) in [10]; > 100 µM (inactive) in assay [11]; > 100 µM (inactive) in [17]. The GI50 was > 100 µM (inactive) in assay [12]; > 100 µM (inactive) in assay [13]; 93.5 µM (inactive) in assay [14]; > 100 µM (inactive) in assay [15]; > 100 µM (inactive) in assay [16].

Consider `CCOP(=O)(C/C(=N/NC(C)(C)C)C(=O)Nc1nc2ccc(C)cc2s1)OCC`, for which the GI50 in assay [1], in [2], in assay [3], in assay [4], in assay [5] and in assay [6] was > 100 µM (inactive) throughout. For the same compound, the GI50 in assay [7], in [8], in [9], in [10], in assay [11] and in assay [17] was > 100 µM (inactive) each time. The GI50 in [12], in [13], in [14], in assay [15] and in assay [16] was > 100 µM (inactive) throughout.

Take `CCSC(=O)C1(C)OC2CCCCC2C1=O` (stereo not drawn): the GI50 in assay [1], in [2], in assay [3], in assay [5], in assay [6] and in [7] was > 100 µM (inactive) throughout. The GI50 in assay [8], in assay [9], in [17], in assay [12], in assay [13] and in [14] was > 100 µM (inactive) in each case. Also, the GI50 in assay [15] and in [16] was > 100 µM (inactive) throughout.

For the compound `CC(C)(CN1C(=O)C(Cl)=C(Cl)C1=O)CN1C(=O)C(Cl)=C(Cl)C1=O`, the GI50 in assay [1] was 28.6 µM (inactive); in assay [2], 8.15 µM (inactive); in [3], 0.552 µM (active); in assay [4], 13.2 µM (inactive); in assay [5], 18.9 µM (inactive); in assay [6] it was 24.2 µM (inactive). Besides, the GI50 in assay [7] was 16.6 µM (inactive); in [8] it was 35 µM (inactive); in assay [9] it was 1.62 µM (inactive); in assay [10], 8.02 µM (inactive); in assay [11], 19.8 µM (inactive); in assay [17] it was 6 µM (inactive). In addition, the GI50 in [12] is 18.8 µM (inactive); in assay [13], 11.7 µM (inactive); in assay [14] it was 2.58 µM (inactive); in assay [15], 5 µM (inactive); in assay [16] it was 9.02 µM (inactive).

Take `O=C(Nc1cccc2c1C(=O)c1c(NC(=O)c3ccccc3)ccc(Nc3cccc4c3C(=O)c3ccccc3C4=O)c1C2=O)c1ccccc1`: the GI50 in assay [1], in assay [2], in assay [3], in [5], in assay [6] and in assay [7] was > 100 µM (inactive) each time. In addition, the GI50 in assay [8] is > 100 µM (inactive); in [9], > 100 µM (inactive); in [10] it was > 100 µM (inactive); in [17] it was 59.4 µM (inactive); in assay [12] it was > 100 µM (inactive); in [13] it was > 100 µM (inactive). In addition, the GI50 in assay [14], in assay [15] and in [16] was > 100 µM (inactive) throughout.

`C[N+](C)(Cc1ccc(NC(=O)CCCC(=O)ON2C(=O)CCC2=O)cc1)c1ccccc1`: the GI50 in [1], in assay [2], in assay [3], in assay [4], in assay [5] and in [6] was < 0.01 µM (active) each time. Further, the GI50 in assay [7] was < 0.01 µM (active); in assay [8], > 1 µM (active); in assay [9] it was < 0.01 µM (active); in [10], < 0.01 µM (active); in assay [11], < 0.01 µM (active); in [17], > 1 µM (active). Also, the GI50 is 0.0234 µM (active) in [12]; < 0.01 µM (active) in assay [13]; < 0.01 µM (active) in assay [14]; < 0.01 µM (active) in [15]; < 0.01 µM (active) in assay [16].

In the case of `Cc1ccc(NC(=O)CCC(=O)C2Cc3ccccc3C2=O)cc1C` (stereo not drawn), the GI50 in [1], in [2], in [3], in assay [4], in [5] and in [6] was > 100 µM (inactive) throughout. Moreover, the GI50 in [7], in assay [8], in [9], in assay [10], in assay [11] and in assay [17] was > 100 µM (inactive) each time. Moreover, the GI50 in assay [12], in assay [13], in assay [14], in assay [15] and in [16] was > 100 µM (inactive) in each case.

Regarding `Cc1cc(C(C)C)cc(=O)c(O)c1`, the GI50 in assay [1], in assay [2], in assay [3], in assay [4], in [5] and in assay [6] was > 100 µM (inactive) in each case. Further, the GI50 in [7], in [8], in assay [9], in [10], in [11] and in [17] was > 100 µM (inactive) throughout. For the same compound, the GI50 in assay [13], in assay [14], in assay [15] and in assay [16] was > 100 µM (inactive) each time.
